The target in one test is T1, HiBit-BRM fusion protein (Homo sapiens, UniProt P51531).
T1 construct: expressed in transfected cells
The test can be described thus: HiBiT-BRM cell-based degradation assay (Nano-Glo HiBiT Lytic Detection, 24 h). The conditions noted are these: stable HeLa cell line expressing HiBiT-BRM, top dose 30 μM. Summed up: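 Luminescence from HiBiT/LgBiT complementation after lysis reports remaining HiBiT-BRM in stable HeLa cells exposed to compound for 24 h. Dosing used 3-fold serial dilutions, 10 points, 30 μM top final concentration. DMSO and a 2 μM BRM/BRG1 degrader standard defined 0% and 100% degradation.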

In test [1] the target is T2, HiBit-BRG1 fusion protein (Homo sapiens, UniProt P51532).
T2 construct: expressed in transfected cells
T2 sequence (P51532 whole entry, the tested form may be a part): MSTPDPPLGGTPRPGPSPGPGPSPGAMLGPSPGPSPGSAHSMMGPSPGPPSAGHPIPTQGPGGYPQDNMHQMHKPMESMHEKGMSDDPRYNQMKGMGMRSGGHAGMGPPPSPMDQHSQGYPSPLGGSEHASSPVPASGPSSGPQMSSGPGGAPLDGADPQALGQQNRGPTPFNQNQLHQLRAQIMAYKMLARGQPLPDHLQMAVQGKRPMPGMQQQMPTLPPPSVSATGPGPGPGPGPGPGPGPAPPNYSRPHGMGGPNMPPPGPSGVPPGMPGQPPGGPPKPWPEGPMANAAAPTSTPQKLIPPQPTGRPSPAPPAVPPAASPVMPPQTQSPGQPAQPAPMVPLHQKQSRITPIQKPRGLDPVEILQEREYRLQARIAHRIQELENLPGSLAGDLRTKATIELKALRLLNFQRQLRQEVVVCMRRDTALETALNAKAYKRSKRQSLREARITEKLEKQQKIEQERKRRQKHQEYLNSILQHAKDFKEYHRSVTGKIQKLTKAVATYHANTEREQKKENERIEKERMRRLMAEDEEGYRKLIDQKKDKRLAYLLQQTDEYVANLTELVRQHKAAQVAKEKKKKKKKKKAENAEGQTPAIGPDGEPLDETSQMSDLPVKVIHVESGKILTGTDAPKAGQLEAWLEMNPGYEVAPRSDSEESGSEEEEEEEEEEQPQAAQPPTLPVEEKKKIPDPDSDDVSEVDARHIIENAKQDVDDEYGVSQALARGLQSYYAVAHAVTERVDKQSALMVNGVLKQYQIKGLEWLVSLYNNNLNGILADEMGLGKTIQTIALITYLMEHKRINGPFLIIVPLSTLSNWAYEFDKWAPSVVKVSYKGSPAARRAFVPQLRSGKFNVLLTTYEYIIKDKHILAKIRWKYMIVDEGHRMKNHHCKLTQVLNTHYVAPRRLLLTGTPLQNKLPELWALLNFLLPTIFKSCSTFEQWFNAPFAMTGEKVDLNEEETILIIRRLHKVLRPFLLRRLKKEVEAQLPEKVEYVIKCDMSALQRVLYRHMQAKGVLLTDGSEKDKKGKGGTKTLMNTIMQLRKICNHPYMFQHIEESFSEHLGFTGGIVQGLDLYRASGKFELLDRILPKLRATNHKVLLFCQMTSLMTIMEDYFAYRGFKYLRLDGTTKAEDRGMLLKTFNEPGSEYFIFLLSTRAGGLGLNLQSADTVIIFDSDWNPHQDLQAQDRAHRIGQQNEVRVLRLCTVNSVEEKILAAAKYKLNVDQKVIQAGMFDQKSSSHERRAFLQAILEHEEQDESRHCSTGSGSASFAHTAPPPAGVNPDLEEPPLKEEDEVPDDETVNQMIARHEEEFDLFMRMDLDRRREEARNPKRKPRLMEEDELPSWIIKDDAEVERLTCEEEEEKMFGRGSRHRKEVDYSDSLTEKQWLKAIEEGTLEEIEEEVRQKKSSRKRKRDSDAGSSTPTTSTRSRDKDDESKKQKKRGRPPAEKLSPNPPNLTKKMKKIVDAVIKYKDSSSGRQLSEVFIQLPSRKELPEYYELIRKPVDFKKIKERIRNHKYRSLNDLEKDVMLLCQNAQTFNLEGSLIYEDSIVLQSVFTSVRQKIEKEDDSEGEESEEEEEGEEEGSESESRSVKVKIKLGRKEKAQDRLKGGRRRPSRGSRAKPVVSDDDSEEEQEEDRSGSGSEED
The test can be described thus: HiBiT-BRG1 cell-based degradation assay (Nano-Glo HiBiT Lytic Detection, 24 h). The conditions noted are these: stable HeLa cell line expressing HiBit-BRG1 and LgBit, top dose 30 μM, read-out: BRG1 HiBit Degradation Maximum (%). Summed up:
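HeLa cells stably expressing HiBiT-BRG1 plus LgBiT were treated with 10-point 3-fold compound dilutions (top 30 μM final) for 24 h. Lytic Nano-Glo HiBiT luminescence was read. % degradation was normalised between DMSO (high control) and 2 μM of a reference BRM/BRG1 degrader (low control).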
On the technique in general: With HiBiT, luminescence reflects the tagged protein that the partner subunit can reach.

Where only a bound is given, the exact number is not on record here.

T1 sequence (P51531 whole entry, the tested form may be a part): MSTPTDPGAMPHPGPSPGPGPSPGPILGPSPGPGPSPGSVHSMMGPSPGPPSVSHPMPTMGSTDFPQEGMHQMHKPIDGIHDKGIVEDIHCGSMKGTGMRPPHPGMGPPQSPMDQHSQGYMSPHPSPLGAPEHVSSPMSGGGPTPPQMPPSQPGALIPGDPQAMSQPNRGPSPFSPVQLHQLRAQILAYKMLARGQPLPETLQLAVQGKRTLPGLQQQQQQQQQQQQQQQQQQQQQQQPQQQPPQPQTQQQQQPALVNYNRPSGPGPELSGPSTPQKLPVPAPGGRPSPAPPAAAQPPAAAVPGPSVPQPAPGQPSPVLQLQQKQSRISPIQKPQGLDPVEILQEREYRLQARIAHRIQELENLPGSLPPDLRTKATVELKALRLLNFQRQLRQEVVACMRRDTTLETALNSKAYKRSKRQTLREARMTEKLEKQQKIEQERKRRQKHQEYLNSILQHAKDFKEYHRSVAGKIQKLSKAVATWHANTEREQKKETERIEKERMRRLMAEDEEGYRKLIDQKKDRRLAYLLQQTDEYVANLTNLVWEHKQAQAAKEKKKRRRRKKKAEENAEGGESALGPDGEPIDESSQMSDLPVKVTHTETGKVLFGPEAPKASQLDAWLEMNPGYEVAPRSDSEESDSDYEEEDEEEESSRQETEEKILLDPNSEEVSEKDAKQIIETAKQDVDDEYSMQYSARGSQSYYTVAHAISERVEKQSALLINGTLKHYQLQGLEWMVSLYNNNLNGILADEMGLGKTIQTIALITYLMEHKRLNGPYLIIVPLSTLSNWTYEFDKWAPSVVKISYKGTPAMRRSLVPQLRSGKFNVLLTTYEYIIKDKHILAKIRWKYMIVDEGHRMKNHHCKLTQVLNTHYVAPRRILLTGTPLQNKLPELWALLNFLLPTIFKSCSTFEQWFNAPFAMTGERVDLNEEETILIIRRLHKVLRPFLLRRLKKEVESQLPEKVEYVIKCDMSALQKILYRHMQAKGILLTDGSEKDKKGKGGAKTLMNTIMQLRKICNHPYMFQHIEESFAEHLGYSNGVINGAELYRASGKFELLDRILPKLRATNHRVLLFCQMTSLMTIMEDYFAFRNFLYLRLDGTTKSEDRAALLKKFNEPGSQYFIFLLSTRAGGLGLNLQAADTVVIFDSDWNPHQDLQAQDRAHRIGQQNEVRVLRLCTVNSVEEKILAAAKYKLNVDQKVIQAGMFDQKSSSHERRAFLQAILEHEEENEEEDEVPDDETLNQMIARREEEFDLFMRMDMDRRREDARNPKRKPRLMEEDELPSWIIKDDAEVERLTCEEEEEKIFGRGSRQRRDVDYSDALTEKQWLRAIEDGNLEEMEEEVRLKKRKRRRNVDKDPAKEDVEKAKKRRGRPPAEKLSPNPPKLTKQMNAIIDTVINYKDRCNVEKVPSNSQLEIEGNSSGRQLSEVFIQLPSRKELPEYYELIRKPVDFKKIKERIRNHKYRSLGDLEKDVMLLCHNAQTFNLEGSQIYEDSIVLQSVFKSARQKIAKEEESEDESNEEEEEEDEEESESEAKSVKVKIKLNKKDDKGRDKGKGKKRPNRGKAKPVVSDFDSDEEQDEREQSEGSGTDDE

As to `Nc1nnc(-c2ccccc2O)cc1OCC12CC(C(=O)NCCCCCCCCNc3cccc4c3CN(C3CCC(=O)NC3=O)C4=O)(C1)C2` (stereo not shown) [Compound 58, 3-(((3-amino-6-(2-hydroxyphenyl)pyridazin-4-yl)oxy)methyl)-N-(8-((2-(2,6-dioxopiperidin-3-yl)-1-oxoisoindolin-4-yl)amino)octyl)bicyclo[1.1.1]pentane-1-carboxamide], the “BRM HiBit Degradation Maximum (%)” value on HiBit-BRM fusion protein is listed as “C (“C” indicates maximum degradation < 50%)”. Moreover, the Dmax in test [1] is under 50%.

For `Cc1ncsc1-c1ccc(CNC(=O)[C@@H]2C[C@@H](O)CN2C(=O)[C@@H](NC(=O)CCCC(=O)NC23CC(CCOc4cc(-c5ccccc5O)nnc4N)(C2)C3)C(C)(C)C)cc1` [Compound 46, N1-(3-(2-((3-amino-6-(2-hydroxyphenyl)pyridazin-4-yl)oxy)ethyl)bicyclo[1.1.1]pentan-1-yl)-N5-((S)-1-((2S,4R)-4-hydroxy-2-((4-(4-methylthiazol-5-yl)benzyl)carbamoyl)pyrrolidin-1-yl)-3,3-dimethyl-1-oxobutan-2-yl)glutaramide], the “BRM HiBit Degradation Maximum (%)” value on HiBit-BRM fusion protein is given as “B (“B” indicates maximum degradation ≥ 50%)”. The Dmax in test [1] is under 50%.

Regarding `Nc1nnc(-c2ccccc2O)cc1OCC12CC(C(=O)NCCCC#Cc3ccc4c(c3)C(=O)N(C3CCC(=O)NC3=O)C4=O)(C1)C2` (stereo not shown) [Compound 89, 3-(((3-amino-6-(2-hydroxyphenyl)pyridazin-4-yl)oxy)methyl)-N-(5-(2-(2,6-dioxopiperidin-3-yl)-1,3-dioxoisoindolin-5-yl)pent-4-yn-1-yl)bicyclo[1.1.1]pentane-1-carboxamide], at HiBit-BRM fusion protein, the “BRM HiBit Degradation Maximum (%)” value is given as “C (“C” indicates maximum degradation < 50%)”. In addition, the Dmax in test [1] was under 50%.

`Nc1nnc(-c2ccccc2O)cc1OCC12CC(C(=O)NCCCCNc3ccc4c(c3)C(=O)N(C3CCC(=O)NC3=O)C4=O)(C1)C2` (stereo not shown) [Compound 62, formic acid]: on HiBit-BRM fusion protein, the “BRM HiBit Degradation Maximum (%)” value is reported as “C (“C” indicates maximum degradation < 50%)”. In addition, the Dmax in test [1] is under 50%.

As to `CN(CCNC(=O)C12CC(COc3cc(-c4ccccc4O)nnc3N)(C1)C2)CCOCCOc1cccc2c1C(=O)N(C1CCC(=O)NC1=O)C2=O` (stereo not shown) [Compound 79, 3-(((3-amino-6-(2-hydroxyphenyl)pyridazin-4-yl)oxy)methyl)-N-(2-((2-(2-((2-(2,6-dioxopiperidin-3-yl)-1,3-dioxoisoindolin-4-yl)oxy)ethoxy)ethyl)(methyl)amino)ethyl)bicyclo[1.1.1]pentane-1-carboxamide], the “BRM HiBit Degradation Maximum (%)” value on HiBit-BRM fusion protein is given as “C (“C” indicates maximum degradation < 50%)”. Besides, the Dmax in test [1] is under 50%.

For `Nc1nnc(-c2ccccc2O)cc1OCC12CC(CNC(=O)CCN3CC4(C3)CN(c3ccc5c(c3)C(=O)N(C3CCC(=O)NC3=O)C5=O)C4)(C1)C2` (stereo not shown) [Compound 17, N-((3-(((3-amino-6-(2-hydroxyphenyl)pyridazin-4-yl)oxy)methyl)bicyclo[1.1.1]pentan-1-yl)methyl)-3-(6-(2-(2,6-dioxopiperidin-3-yl)-1,3-dioxoisoindolin-5-yl)-2,6-diazaspiro [3.3]heptan-2-yl)propanamide], the “BRM HiBit Degradation Maximum (%)” value at HiBit-BRM fusion protein is reported as “C (“C” indicates maximum degradation < 50%)”. In addition, in test [1], the Dmax was under 50%.

For the compound `Cc1ncsc1-c1ccc(CNC(=O)[C@@H]2C[C@@H](O)CN2C(=O)[C@@H](NC(=O)CCCCCCCCCC(=O)NCC23CC(COc4cc(-c5ccccc5O)nnc4N)(C2)C3)C(C)(C)C)cc1` [Compound 39, N1-((3-(((3-amino-6-(2-hydroxyphenyl)pyridazin-4-yl)oxy)methyl)bicyclo[1.1.1]pentan-1-yl)methyl)-N11-((S)-1-((2S,4R)-4-hydroxy-2-((4-(4-methylthiazol-5-yl)benzyl)carbamoyl)pyrrolidin-1-yl)-3,3-dimethyl-1-oxobutan-2-yl)undecanediamide], on HiBit-BRM fusion protein, the “BRM HiBit Degradation Maximum (%)” value is on record as “B (“B” indicates maximum degradation ≥ 50%)”. In addition, the Dmax in test [1] is under 50%.

On to `Cc1ncsc1-c1ccc(CNC(=O)[C@@H]2C[C@@H](O)CN2C(=O)[C@@H](NC(=O)CCC(=O)NC23CC(CCOc4cc(-c5ccccc5O)nnc4N)(C2)C3)C(C)(C)C)cc1` [Compound 42, N1-(3-(2-((3-amino-6-(2-hydroxyphenyl)pyridazin-4-yl)oxy)ethyl)bicyclo[1.1.1]pentan-1-yl)-N4-((S)-1-((2S,4R)-4-hydroxy-2-((4-(4-methylthiazol-5-yl)benzyl)carbamoyl)pyrrolidin-1-yl)-3,3-dimethyl-1-oxobutan-2-yl)succinamide], for which the “BRM HiBit Degradation Maximum (%)” value at HiBit-BRM fusion protein is given as “C (“C” indicates maximum degradation < 50%)”. For the same compound, the Dmax in test [1] was under 50%.

With `Nc1nnc(-c2ccccc2O)cc1OCCC12CC(NC(=O)C3CCN(CCOc4ccc5c(c4)C(=O)N(C4CCC(=O)NC4=O)C5=O)CC3)(C1)C2` (stereo not shown) [Compound 32, N-(3-(2-((3-amino-6-(2-hydroxyphenyl)pyridazin-4-yl)oxy)ethyl)bicyclo[1.1.1]pentan-1-yl)-1-(2-((2-(2,6-dioxopiperidin-3-yl)-1,3-dioxoisoindolin-5-yl)oxy)ethyl)piperidine-4-carboxamide], the “BRM HiBit Degradation Maximum (%)” value at HiBit-BRM fusion protein was “B (“B” indicates maximum degradation ≥ 50%)”. Moreover, in test [1], the Dmax was under 50%.

For the compound `Cc1nc2cccc(NCCCCCCNC(=O)C34CC(COc5cc(-c6ccccc6O)nnc5N)(C3)C4)c2c(=O)n1C1CCC(=O)NC1=O` (stereo not shown) [Compound 67, 3-(((3-amino-6-(2-hydroxyphenyl)pyridazin-4-yl)oxy)methyl)-N-(6-((3-(2,6-dioxopiperidin-3-yl)-2-methyl-4-oxo-3,4-dihydroquinazolin-5-yl)amino)hexyl)bicyclo[1.1.1]pentane-1-carboxamide], the “BRM HiBit Degradation Maximum (%)” value on HiBit-BRM fusion protein is “C (“C” indicates maximum degradation < 50%)”. The Dmax in test [1] was under 50%.

As to `Nc1nnc(-c2ccccc2O)cc1OCC12CC(C(=O)NC3CCN(CCOc4ccc5c(c4)C(=O)N(C4CCC(=O)NC4=O)C5=O)CC3)(C1)C2` (stereo not shown) [Compound 80, 3-(((3-amino-6-(2-hydroxyphenyl)pyridazin-4-yl)oxy)methyl)-N-(1-(2-((2-(2,6-dioxopiperidin-3-yl)-1,3-dioxoisoindolin-5-yl)oxy)ethyl)piperidin-4-yl)bicyclo[1.1.1]pentane-1-carboxamide], on HiBit-BRM fusion protein, the “BRM HiBit Degradation Maximum (%)” value was “C (“C” indicates maximum degradation < 50%)”. In addition, the Dmax in test [1] is under 50%.

With `Nc1nnc(-c2ccccc2O)cc1OCCC12CC(NC(=O)CCCCCCCCCCNc3ccc4c(c3)C(=O)N(C3CCC(=O)NC3=O)C4=O)(C1)C2` (stereo not shown) [Compound 26, N-[3-(2-[[3-amino-6-(2-hydroxyphenyl)pyridazin-4-yl]oxy]ethyl)bicyclo[1.1.1]pentan-1-yl]-11-[[2-(2,6-dioxopiperidin-3-yl)-1,3-dioxoisoindol-5-yl]amino]undecanamide], on HiBit-BRM fusion protein, the “BRM HiBit Degradation Maximum (%)” value is “C (“C” indicates maximum degradation < 50%)”. Besides, the Dmax in test [1] was under 50%.

Regarding `Nc1nnc(-c2ccccc2O)cc1OCC12CC(C(=O)NCCCCCCCCNc3cccc4c3C(=O)N(C3CCC(=O)NC3=O)C4=O)(C1)C2` (stereo not shown) [Compound 57, 3-(((3-amino-6-(2-hydroxyphenyl)pyridazin-4-yl)oxy)methyl)-N-(8-((2-(2,6-dioxopiperidin-3-yl)-1,3-dioxoisoindolin-4-yl)amino)octyl)bicyclo[1.1.1]pentane-1-carboxamide], the “BRM HiBit Degradation Maximum (%)” value on HiBit-BRM fusion protein was “C (“C” indicates maximum degradation < 50%)”. In addition, the Dmax in test [1] was under 50%.

`Nc1nnc(-c2ccccc2O)cc1OCC12CC(CNC(=O)CCCCCCCOc3cccc4c3C(=O)N(C3CCC(=O)NC3=O)C4=O)(C1)C2` (stereo not shown) [Compound 5, N-[[3-([[3-amino-6-(2-hydroxyphenyl)pyridazin-4-yl]oxy]methyl)bicyclo[1.1.1]pentan-1-yl]methyl]-8-[[2-(2,6-dioxopiperidin-3-yl)-1,3-dioxoisoindol-4-yl]oxy]octanamide]: on HiBit-BRM fusion protein, the “BRM HiBit Degradation Maximum (%)” value is “C (“C” indicates maximum degradation < 50%)”. Also, the Dmax in test [1] was under 50%.

As to `Nc1nnc(-c2ccccc2O)cc1OCC12CC(CNC(=O)C3CCN(CCOc4ccc5c(c4)C(=O)N(C4CCC(=O)NC4=O)C5=O)CC3)(C1)C2` (stereo not shown) [Compound 15, N-((3-(((3-amino-6-(2-hydroxyphenyl)pyridazin-4-yl)oxy)methyl)bicyclo[1.1.1]pentan-1-yl)methyl)-1-(2-((2-(2,6-dioxopiperidin-3-yl)-1,3-dioxoisoindolin-5-yl)oxy)ethyl)piperidine-4-carboxamide], the “BRM HiBit Degradation Maximum (%)” value at HiBit-BRM fusion protein is “C (“C” indicates maximum degradation < 50%)”. Also, the Dmax in test [1] is under 50%.

In the case of `Nc1nnc(-c2ccccc2O)cc1OCC12CC(C(=O)N3CCN(CCCC#Cc4ccc5c(c4)C(=O)N(C4CCC(=O)NC4=O)C5=O)CC3)(C1)C2` (stereo not shown) [Compound 51, 5-(5-(4-(3-(((3-amino-6-(2-hydroxyphenyl)pyridazin-4-yl)oxy)methyl)bicyclo[1.1.1]pentane-1-carbonyl)piperazin-1-yl)pent-1-yn-1-yl)-2-(2,6-dioxopiperidin-3-yl)isoindoline-1,3-dione], the “BRM HiBit Degradation Maximum (%)” value at HiBit-BRM fusion protein is given as “C (“C” indicates maximum degradation < 50%)”. In addition, the Dmax in test [1] was under 50%.

In the case of `Nc1nnc(-c2ccccc2O)cc1OCC12CC(CNC(=O)CCN3CCN(c4ccc5c(c4)C(=O)N(C4CCC(=O)NC4=O)C5=O)CC3)(C1)C2` (stereo not shown) [Compound 16, N-((3-(((3-amino-6-(2-hydroxyphenyl)pyridazin-4-yl)oxy)methyl)bicyclo[1.1.1]pentan-1-yl)methyl)-3-(4-(2-(2,6-dioxopiperidin-3-yl)-1,3-dioxoisoindolin-5-yl)piperazin-1-yl) propanamide], at HiBit-BRM fusion protein, the “BRM HiBit Degradation Maximum (%)” value is recorded as “C (“C” indicates maximum degradation < 50%)”. In addition, the Dmax in test [1] is under 50%.

Source of the values: patent US12552775B2, “Compounds and uses thereof” (Foghorn Therapeutics Inc., priority 2020, dated 2026).
